Laboratory results reported in US20220204493A1, “CRYSTALLINE FORM OF A BET-INHIBITOR AND MANUFACTURE THEREOF” (ORION CORPORATION, priority 2019, published 2022).
Blank lines part the entries; values can stand above or below the compound they belong to.

What was measured:
[1] = Relative stability study between crystalline form 1 and 2 (storage at stressed conditions, XRPD at time points); assay type: physicochemical
Experimental: The XRPD pattern of the crystalline form 1 of compound (I) was measured using a PANalytical X'Celerator θ-θ diffractometer with CuKα radiation (40 kV, 30 mA). The diffractometer was operated in reflection mode. The measurements were performed in the range of 3°-40° 2θ. 100-300 mg of the sample powder was placed in the sample holder and the surface was pressed. For comparison purposes, the XRPD pattern of an unmilled sample of crystalline form 1 and the XRPD pattern of a milled sample of crystalline form 1 are shown together in FIG. 3.
The XRPD pattern of the amorphic form and the crystalline form 2 of compound (I) were measured as above except that a small sample amounts (approximately 5-10 mg) were first placed in the centre of a zero-background sample holder and then gently spread to a thin layer.
(§1) Four samples of compound (I) in crystalline form 2 (with traces of form 1) prepared according to Example 10 were stored at stressed conditions. XRPD of each sample was recorded at initial time point and at further time points. Moreover, long term stability of crystalline form 1 of compound (I) at different storage conditions was studied.

[2] = Long-term stability of crystalline form 1 at different storage conditions (XRPD); assay type: physicochemical
Experimental: as §1

[3] = Hygroscopicity of crystalline form 1; assay type: physicochemical

Relative stability of the crystalline forms ([1]; all studied conditions): more stable than form 2 | Physical stability [2]: physically stable | Long-term stability, changes by XRPD ([2]; 25° C./RH 60 % and 40° C./RH 75 %): no changes were observed | Long-term stability (stable up to; no changes by XRPD) ([2]; storage 25° C./RH 60 %): Stable up to 24 months | Long-term stability (stable up to; no changes by XRPD) ([2]; storage 40° C./RH 75 %): Stable up to 6 months | Hygroscopicity [3]: low hygroscopicity
Structure (SMILES): COc1cc2c(cc1-c1c(C)noc1C)cc(C)c(=O)n2Cc1ccccn1 [Crystalline form 1, 6-(3,5-dimethylisoxazol-4-yl)-7-methoxy-3-methyl-1-(pyridin-2-ylmethyl)quinolin-2(1H)-one]

melting point: 180 °C
Structure (SMILES): COc1cc2c(cc1-c1c(C)noc1C)cc(C)c(=O)n2Cc1ccccn1 [amorphous compound (I), 6-(3,5-Dimethylisoxazol-4-yl)-7-methoxy-3-methyl-1-(pyridin-2-ylmethyl)quinolin-2(1H)-one]

Crystalline form found by XRPD ([1]; 25 °C/RH 60 %, 2 weeks): II + | Crystalline form found by XRPD ([1]; 25 °C/RH 60 %, 4 weeks): II + | Crystalline form found by XRPD ([1]; 25 °C/RH 60 %, 12 weeks): II + | Crystalline form found by XRPD ([1]; 25 °C/RH 60 %, 24 weeks): I + | Crystalline form found by XRPD ([1]; 25 °C/RH 60 %, initial): II + | Crystalline form found by XRPD ([1]; 30 °C/RH 65 %, 2 weeks): II + | Crystalline form found by XRPD ([1]; 30 °C/RH 65 %, 4 weeks): II + | Crystalline form found by XRPD ([1]; 30 °C/RH 65 %, 12 weeks): II + | Crystalline form found by XRPD ([1]; 30 °C/RH 65 %, 24 weeks): I + | Crystalline form found by XRPD ([1]; 30 °C/RH 65 %, initial): II + | Crystalline form found by XRPD ([1]; 40 °C/RH 75 %, 2 weeks): II + | Crystalline form found by XRPD ([1]; 40 °C/RH 75 %, 4 weeks): II + | Crystalline form found by XRPD ([1]; 40 °C/RH 75 %, initial): II + | Crystalline form found by XRPD ([1]; RT/RH 5 %, initial): II + | Time for transformation of form 2 to form 1 ([1]; all studied conditions): ≤ 36 weeks
Structure (SMILES): COc1cc2c(cc1-c1c(C)noc1C)cc(C)c(=O)n2Cc1ccccn1 [crystalline form 2, 6-(3,5-dimethylisoxazol-4-yl)-7-methoxy-3-methyl-1-(pyridin-2-ylmethyl)quinolin-2(1H)-one]
